Like-named read-outs stand apart in the source and are kept apart here. Where no end group is shown, it is not given here.
Key:
[1] = tested on: E. coli UB1005; assay type: cell-based, Escherichia coli
Summary of the method: (§1)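 Modified NCCLS broth microdilution: mid-log bacteria diluted in MHB to 0.5–1 × 10^6 CFU mL^–1, mixed with peptides serially diluted in 0.2% BSA, incubated 24 h at 37°C. MIC taken as lowest concentration inhibiting 95% of growth by absorbance at 492 nm.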

[2] = tested on: E. coli 25922; assay type: cell-based, Escherichia coli
Summary of the method: as §1

[3] = tested on: E. coli O78; assay type: cell-based, Escherichia coli
Summary of the method: as §1

[4] = tested on: Listeria monocytogenes CGMCC 1.1075; assay type: cell-based
Summary of the method: as §1

[5] = tested on: S. aureus 25923; assay type: cell-based, Staphylococcus aureus
Summary of the method: as §1

[6] = tested on: S. aureus 29213; assay type: cell-based, Staphylococcus aureus
Summary of the method: as §1

[7] = tested on: S. epidermidis 12228; assay type: cell-based, Staphylococcus epidermidis
Summary of the method: as §1

[8] = tested on: all of the tested bacterial strains; assay: Geometric mean of MICs, all tested bacterial strains; assay type: cell-based; conditions: geometric mean of MICs across all tested strains
Summary of the method: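 Mid-log bacteria at 0.5–1 × 10^6 CFU mL^–1 in MHB with peptides serially diluted in 0.2% BSA, 24 h at 37°C. MIC is the lowest concentration giving 95% growth inhibition by A492. MBC is the lowest giving >99.9% kill on agar subculture, and the GM is taken over all strains.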

[9] = tested on: P. aeruginosa 27853; assay type: cell-based, Pseudomonas aeruginosa
Summary of the method: as §1

[10] = tested on: S. aureus 29213; assay: Salt sensitivity assay (MIC); assay type: cell-based, Staphylococcus aureus; conditions: for MIC, FeCl3: 4 μM FeCl3; for MIC, NH4Cl: 6 μM NH4Cl; for MIC, ZnCl2: 8 μM ZnCl2; for MIC, MgCl2: 1 mM MgCl2; for MIC, CaCl2: 2 mM CaCl2; for MIC, KCl: 4.5 mM KCl; for MIC, NaCl: 150 mM NaCl
Summary of the method: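 MICs determined by broth microdilution in MHB with 0.5–1 × 10^6 CFU/mL, peptides serially diluted in 0.2% BSA, 24 h at 37°C. Medium supplemented with physiological salts (150 mM NaCl, 4.5 mM KCl, 6 μM NH4Cl, 8 μM ZnCl2, 1 mM MgCl2, 2mM CaCl2, 4 μM FeCl3). MIC = lowest concentration inhibiting 95% growth (A492).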

[11] = tested on: S. pullorum 7913; assay type: cell-based, Salmonella pullorum
Summary of the method: as §1

[12] = tested on: MRSA 43300; assay type: cell-based, methicillin-resistant S. aureus
Summary of the method: as §1

[13] = tested on: Gram-positive bacteria; conditions: for GM MIC: geometric mean of MICs, 7 Gram-positive strains (Table 2)
Summary of the method: (§2)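 Broth microdilution adapted from NCCLS: mid-log bacteria diluted in MHB to 0.5–1 × 10^6 CFU mL^–1, mixed with peptides serially diluted in 0.2% BSA. After 24 h at 37°C, MIC taken as the lowest concentration inhibiting 95% of growth by absorbance at 492 nm. Assays repeated more than 3 times.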

[14] = tested on: Gram-negative bacteria; conditions: for GM MIC: geometric mean of MICs, 9 Gram-negative strains (Table 2)
Summary of the method: as §2

[15] = tested on: E. coli K99; conditions: for MIC: MHB, 24 h 37°C, 95% growth inhibition; for MBC: value in brackets, >99.9% of cells killed
Protocol: (§3) The antimicrobial activities of the peptides were measured using a method adapted from the National Committee for Clinical Laboratory Standards (NCCLS) with some modifications ([Chou et al., 2016]). The specific procedure for these assays has been previously described. In brief, the bacterial cells were grown to a mid-logarithmic phase and diluted in MHB to an ultimate concentration of 0.5–1 × 10^6 CFU mL^–1. Subsequently, the peptides were consecutively diluted in a 0.2% BSA solution and then added to a bacterial solution in a 96-well plate at identical volumes. After incubation for 24 h at 37°C, the MICs were determined to be the lowest peptide concentration that inhibited 95% of the bacterial growth by monitoring the absorbance at 492 nm using a microplate reader. Subsequently, 50 μL of each incubation mixture was further transferred to agar plates and incubated overnight. […] Every assay was reproduced more than 3 times.

[16] = tested on: E. coli K88; conditions: for MIC: MHB, 24 h 37°C, 95% growth inhibition; for MBC: value in brackets, >99.9% of cells killed
Protocol: as §3

[17] = tested on: E. faecalis 29212; assay type: cell-based, Enterococcus faecalis
Summary of the method: as §1

[18] = tested on: E. coli ATCC 25922; assay: Salt sensitivity assay (MIC); assay type: cell-based, Escherichia coli; conditions: for MIC, FeCl3: 4 μM FeCl3; for MIC, NH4Cl: 6 μM NH4Cl; for MIC, ZnCl2: 8 μM ZnCl2; for MIC, MgCl2: 1 mM MgCl2; for MIC, CaCl2: 2 mM CaCl2; for MIC, KCl: 4.5 mM KCl; for MIC, NaCl: 150 mM NaCl; for MIC, Control: no added salt, three independent assays
Summary of the method: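 The salt sensitivity of peptides was tested against E. coli ATCC 25922 using a modified NCCLS broth microdilution MIC method. Mid-log bacteria were diluted in MHB to 0.5–1 × 10^6 CFU mL^–1 and mixed in equal volumes with peptides serially diluted in 0.2% BSA in 96-well plates. Physiological salt was added where specified, and the assay was done three independent times.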

[19] = tested on: S. typhimurium 14028; assay type: cell-based, Salmonella typhimurium
Summary of the method: as §1

[20] = tested on: S. typhimurium 7731; assay type: cell-based, Salmonella typhimurium
Summary of the method: as §1

[21] = tested on: B. subtilis 63501; assay type: cell-based, Bacillus subtilis
Summary of the method: as §1

[22] = tested on: Gram-negative bacteria; conditions: geometric mean of MBCs, 9 Gram-negative strains (Table 2)
[23] = tested on: Gram-positive bacteria; conditions: geometric mean of MBCs, 7 Gram-positive strains (Table 2)
[24] = therapeutic index TI = MHC/GM MIC
[25] = MHB, 24 h 37°C, 95% growth inhibition
[26] = value in brackets, >99.9% of cells killed

LLRLLRRRL-NH2 [L1]
39.01 µM: GM MBC [23]
16 µM: MIC ([1]; UB1005, 24 h) | MBC ([2]; 25922, 24 h) | MBC ([3]; O78, 24 h) | MIC ([6]; 29213, 24 h) | MIC ([7]; 12228, 24 h) | MBC ([11]; 7913, 24 h) | MIC ([12]; 43300, 24 h) | MBC [15] | MBC [16] | MIC, KCl [18] | MIC ([19]; 14028, 24 h) | MIC ([20]; 7731, 24 h)
2.97: TI, Gram-positive bacteria [13, 24]
13.72 µM: GM MIC [14]
> 64 µM: MIC ([4]; CGMCC 1.1075, 24 h) | MIC ([9]; 27853, 24 h) | MIC, FeCl3 [10] | MIC, CaCl2 [10] | MIC, NaCl [10]
64 µM: MBC ([5]; 25923, 24 h) | MIC, NH4Cl [10] | MIC, ZnCl2 [10] | MIC, MgCl2 [10] | MIC, KCl [10] | MIC ([17]; 29212, 24 h) | MIC, NaCl [18]
128 µM: MBC ([17]; 29212, 24 h)
32 µM: MBC ([1]; UB1005, 24 h) | MIC ([5]; 25923, 24 h) | MBC ([6]; 29213, 24 h) | MBC ([7]; 12228, 24 h) | MBC ([12]; 43300, 24 h) | MIC, CaCl2 [18] | MBC ([19]; 14028, 24 h) | MBC ([20]; 7731, 24 h)
18.66: TI, Gram-negative bacteria [14, 24]
4 µM: MIC, FeCl3 [18] | MIC, NH4Cl [18] | MBC ([21]; 63501, 24 h)
2 µM: MIC ([21]; 63501, 24 h)
25.40 µM: GM MBC [22]
21.53 µM: GM MIC [13]
16.71 µM: GM, All [8]
8 µM: MIC ([2]; 25922, 24 h) | MIC ([3]; O78, 24 h) | MIC ([11]; 7913, 24 h) | MIC [15] | MIC [16] | MIC, ZnCl2 [18] | MIC, MgCl2 [18] | MIC, Control [18]

Polymyxin B [reference compound]
2.94 µM: GM MIC [14]
64 µM: MIC, CaCl2 [10]
16 µM: MBC [9, 26] | MIC, FeCl3 [10] | MIC, NH4Cl [10] | MIC, ZnCl2 [10] | MIC, MgCl2 [10] | MIC, KCl [10] | MIC, Control ([10]; no added salt, three independent assays)
4 µM: MBC [1, 26] | MIC ([2]; MHB, 0.5–1 × 10^6 CFU/mL, 24 h 37°C, lowest concentration inhibiting 95% of growth (A492), more than 3 repeats) | MBC [3, 26] | MBC [5, 26] | MIC [6, 25] | MBC [7, 26] | MIC [11, 25] | MBC [12, 26] | MBC [15] | MBC [16] | MIC, FeCl3 [18] | MIC, NH4Cl [18] | MIC, ZnCl2 [18] | MIC, MgCl2 [18] | MIC, Control [18] | MIC [19, 25] | MBC [20, 26]
5.88 µM: GM MBC [22]
1 µM: MIC [21, 25]
4.42 µM: GM MIC [13]
32 µM: MIC [4, 25] | MIC, NaCl [10] | MIC [17, 25]
8 µM: MBC ([2]; value in brackets, agar plating, lowest concentration killing >99.9% of cells) | MBC [6, 26] | MIC [9, 25] | MBC [11, 26] | MIC, CaCl2 [18] | MIC, KCl [18] | MIC, NaCl [18] | MBC [19, 26]
> 64 µM: MBC [4, 26] | MBC [17, 26]
2 µM: MIC [1, 25] | MIC [3, 25] | MIC [5, 25] | MIC [7, 25] | MIC [12, 25] | MIC [15] | MIC [16] | MIC [20, 25] | MBC [21, 26]
10.77 µM: GM MBC [23]

From publication PMC7725003, “Systematically Studying the Optimal Amino Acid Distribution Patterns of the Amphiphilic Structure by Using the Ultrashort Amphiphiles” (Frontiers in Microbiology, 2020)
